A short description of data set [1]: Single-dose pharmacokinetics of erlotinib in non-tumor bearing mice. The format is in vivo, female nu/nu athymic mice. As for the experimental part:
(§1) For single-dose pharmacokinetics (PK), blood samples from three mice per time point were collected by cardiac puncture at 5, 15, 30, 60 minutes and 2, 4, 8, 16, 24 hours post-dose. For chronically treated animals, blood samples from two or three mice per time point were collected via the retro-orbital sinus at 1 and 6 hours. Collection tubes contained ethylene diamine tetra-acetic acid (EDTA) as anticoagulant. Samples were stored at −70° C. […] PK parameters were estimated by non-compartmental analysis of the composite data, using the PK evaluation programme WinNonlin PRO® version 3.1 (Pharsight Inc).
The doses refer to the hydrochloride salt with an active drug (free base) content of 91.5%. […] Three animals per time point were evaluated for PK data (FIG. 4).

Data set [2] can be described thus: Chronic-dose plasma and tumor concentrations of erlotinib in tumor-bearing mice. The class given is in vivo, nu/nu athymic mice. To be noted: for concentration at 1 h / concentration at 6 h: nu/nu athymic, mouse; for concentration at 1 h: 1 hour post dose; for concentration at 6 h: 6 hours post dose. Here is the method: On day 28 post tumor implant, blood (from the retro-orbital sinus) and tumor samples were collected at 1 and 6 hours post dosing. […] Values are means±SD, n=3.
as §1

A further data set can be described thus: in vivo. To be noted: for MTD at 14 days: female, mouse, in vivo. As for the experimental part: FIG. 6: Maximum tolerated dose assessment in non-tumour bearing athymic nude mice treated for 14 days (n=5).
Female, athymic, nu/nu-nuBR nude mice (Charles River Labs, Wilmington, USA) of around 10-12 weeks and weighing 23-25 g were used. The health of the mice was assessed daily by observation and analysis of blood samples taken from sentinel animals on the shared shelf racks. All animals were allowed to acclimatise and recover from shipping-related stress for 1 week.

The subject of the next data set is H460a NSCLC xenograft. Kind of data set: Tumor growth inhibition in H460a NSCLC xenograft model. The format is in vivo, athymic nude mice. As for the experimental part: (§2) Mice were implanted with H460a NSCLC cells. […] Tumor size was measured 3 times per week. Values are means, n=10.
as §2
(§3) H460a cells (provided by Dr Jack Roth, Md., Anderson) were grown in Dulbecco's Modified Eagle Media (DMEM) supplemented with 10% Foetal Bovine Serum (FBS). A549 cells (American Type Culture Collection [Manassas, Va.] were grown in Roswell Park Memorial Institute medium (RPMI) 1640+10% FBS. The cell concentrations for implant were 1×10^7 cells/0.2 mL for H460a and 7.5×10^6 cells/0.2 mL for A549.
(§4) Cells were suspended in phosphate-buffered saline, and implanted subcutaneously in the right flank of each mouse. Once palpable tumours were established, animals were randomised so that all groups had similar starting mean tumour volumes of 100-150 mm^3. Tumour measurements and mouse weights were taken three times per week. Animals were individually monitored throughout the experiment.
(§5) All groups were treated daily for 3 weeks.
(§6) Gemcitabine was given intraperitoneally (i.p.) using a 3 mL syringe and 26-gauge needle. All groups were treated every 3 days for 3 weeks (a total of six injections).
(§7) Weight loss was calculated as percent change in mean group body weight, using the formula: ((W−W0)/W0)×100 • where ‘W’ represents mean body weight of the treated group at a particular day, and ‘W0’ represents mean body weight of the same group at start of treatment. Maximum weight loss was also calculated using the above formula, giving the maximum percentage of body weight lost at any time in the entire experiment for a particular group. Treatment efficacy was assessed by tumor growth inhibition. Tumour volumes of treated groups were given as percentages of tumor volumes of the control groups (% T/C), using the formula: 100×((T−T0)/(C−C0)) • where ‘T’ represents mean tumor volume of a treated group on a specific day during the experiment, ‘T0’ represented mean tumor volume of the same group on the first day of treatment, C represents mean tumor volume of a control group on a particular day of the experiment, and C0 represents mean tumor volume of the same group on the first day of treatment.
(§8) Tumor growth inhibition was calculated using the formula: [127] 100% T/C
(§9) Tumor volume (mm^3) was calculated using the ellipsoid formula: (D×(d^2))/2 • where ‘D’ represents the large diameter of the tumor, and ‘d’ represents the small diameter. In some cases, tumor regression and/or percentage change in tumor volume was calculated using the formula: ((T−T0)/T0)×100 • where ‘T’ represents mean tumor volume of the treated group at a particular day, and ‘T0’ represents mean tumor volume of the same treated group at the start of treatment.

The test system of the next data set is A549 NSCLC xenograft. The class given is in vivo. As for the experimental part:
Mice were implanted with A549 NSCLC cells. […] Tumor size was measured 3 times per week. Values are means, n=10.
as §3, §4, §5, §6, §7, §8, §9

A short description of data set [3]: Necropsy, haematology, clinical chemistry and histology of treated mice. The format is in vivo, athymic nude mice.
Text: At necropsy, skin samples were fixed in 10% buffered formalin, embedded in paraffin, sectioned at 5 μand stained with haematoxylin and eosin.
Five mice per treatment from all remaining groups were given a full necropsy at the end of the study. Whole blood was also collected from these mice for haematology and clinical chemistry.
A further data set deals with NSCLC xenograft tumor. Briefly: Immunohistochemistry of xenograft tumors (Ki-67, TUNEL apoptosis, CD31 microvascular density). The format is in vivo, athymic nude mice. As for the experimental part: Sections for immunohistochemistry were cut at 5μ.
To block non-specific tissue-binding sites, sections were blocked by 10% normal serum from the species in which the secondary antibody was raised. Sections were incubated for 20 minutes at room temperature in serum prepared in Ultra-V (Lab Vision).

Another data set has as its system NSCLC. To be noted: single agent, stage 1V patients; cited from earlier work.
[4] abbreviates: plasma, oral 6.3-150.0 mg/kg daily, highest value, read-out: Plasma concentration.
[5] abbreviates: H460a tumor, oral 150 mg/kg, read-out: Mean tumor concentration.

Values joined by “and” are separate entries in the source; they are usually repeats but may differ in a detail not shown here. Equal values may be shown once. Read-outs that look alike come from different tables or passages of the source. A value given as a limit tells only on which side of the number the result lay.

In the case of `C#Cc1cccc(Nc2ncnc3cc(OCCOC)c(OCCOC)cc23)c1` [erlotinib, [6,7-bis(2-methoxyethoxy)-4-quinazolin-4-yl]-(3-ethynylphenyl) amine], the “Dose proportionality of exposure (AUC)” value in data set [1] (20 vs 100 mg/kg single dose) was “dose-proportional”. The MRT in data set [1] (female, nu/nu athymic, mouse, plasma, po, single 20 and 100 mg/kg by gavage, read-out: Average mean residence time) was around 7 h. In addition, the half-life – broadly, the time needed for the level to fall by half in the phase considered – in data set [1] (female, nu/nu athymic, mouse, plasma, po, single 20 and 100 mg/kg by gavage, read-out: Mean apparent terminal half-life (converted)) is around 4 h. Further, the AUC(0-t) (as a rule, the area under the concentration-time curve up to a stated or last time point) is 33.5 µg·h/mL in data set [1] (female, nu/nu athymic, mouse, po, single 20 mg/kg by gavage, plasma) and around 196 µg·h/mL in data set [1] (female, nu/nu athymic, mouse, po, single 100 mg/kg by gavage, plasma). Further, the “Mean maximum plasma concentration” value in data set [1] (single 20 mg/kg by gavage) is reported as ~9,100 ng/mL; in data set [1] (single 100 mg/kg by gavage), “approximately 24,000 ng/mL”. Moreover, the “Time of maximum plasma concentration” value in data set [1] (single 20 and 100 mg/kg by gavage) was 0.5-1.0 hours post dose. Further, the “Dose proportionality of exposure” value in data set [2] (ascending oral doses 6.3-150.0 mg/kg, tumor-bearing mice) is “more than dose-proportional”. In addition, the concentration at 1 h in data set [2] (setting [4]) is at most 16700 ng/mL; in data set [2] (setting [5]) it was 4800 ng/g. For the same compound, the results for the concentration at 6 h in data set [2] (setting [4]) and in data set [2] (setting [5]) were at most 8870 ng/mL and 3090 ng/g, respectively. In addition, in the data set “in vivo” (150 mg/kg for 3 weeks, previous efficacy studies (unpublished)), the Tolerability result is “well tolerated”. Moreover, the figures for the Toxicity outcome in “in vivo” (200 mg/kg group) and in “in vivo” (400 mg/kg group) were “marked weight loss” and “One mouse in the 400 mg/kg group died”, respectively. Also, the MTD at 14 days in “in vivo” (oral daily, 14 days) is 100 mg/kg. Further, the Tumor growth inhibition in the data set on H460a NSCLC xenograft (dose response study, 6.25 mg/kg oral daily, day 28) was determined as 28%; in the data set on H460a NSCLC xenograft (dose response study, 12.5 mg/kg oral daily, day 28) it was 36%; with H460a NSCLC xenograft (dose response study, 25 mg/kg oral daily, day 28), 46%; in the data set on H460a NSCLC xenograft (dose response study, 100 mg/kg oral daily, day 28 post tumor implantation), 61%; in the data set with A549 NSCLC xenograft (erlotinib 25 mg/kg alone, day 47), 48%; in the data set on A549 NSCLC xenograft (erlotinib 100 mg/kg alone, day 47 post tumor implantation (treatment day 19)), 87%. In the data set on H460a NSCLC xenograft (dose response study, all dose groups), the Tumor regressions result is “no partial or complete regressions”. Further, the “Extent of partial regression” value with A549 NSCLC xenograft (erlotinib 100 mg/kg alone) was 16% and 7%. In addition, the “Number of partial regressions” value in the data set on A549 NSCLC xenograft (erlotinib 100 mg/kg alone) was “two”. For the same compound, the Skin lesion histology entry in data set [3] (erlotinib 100 mg/kg/day for 21 days) is “diffuse, mild to moderate epidermal acanthosis, epidermal hyperkeratosis, focal escharosis, and infiltration of mostly acute inflammatory cells in the dermis”. In addition, in data set [3] (erlotinib monotherapy), the “Changes in haematology or clinical chemistry parameters” value was “no changes”. In addition, the “Treatment-related macroscopic changes in the skin” value in data set [3] (erlotinib monotherapy) is “substantial reddening and crusting of the skin of the muzzle”. In the data set on NSCLC xenograft tumor (erlotinib 100 mg/kg, both NSCLC xenograft tumor models), the Ki-67 proliferative index entry is “mild decrease”. Also, in the data set on NSCLC xenograft tumor (erlotinib monotherapy), the “Angiogenesis as microvascular density (MVD), CD31 staining” value is “no clear effect”. The “Frequency of apoptosis in tumor cells” value in the data set with NSCLC xenograft tumor (erlotinib monotherapy, treated xenografts) is on record as “no significant difference”.

For the compound `Nc1ccn([C@@H]2O[C@H](CO)[C@@H](O)C2(F)F)c(=O)n1` [gemcitabine], the MTD at 14 days in “in vivo” (every 3 days) was 120 mg/kg. Moreover, the Tumor growth inhibition was 64% in the data set on H460a NSCLC xenograft (combination study, gemcitabine 30 mg/kg i.p. every 3 days alone); 93% in the data set on H460a NSCLC xenograft (combination study, gemcitabine 120 mg/kg i.p. every 3 days alone); 42% in the data set with A549 NSCLC xenograft (gemcitabine 30 mg/kg alone, day 47); 75% in the data set with A549 NSCLC xenograft (gemcitabine 120 mg/kg alone, day 47). In addition, in the data set with A549 NSCLC xenograft (gemcitabine 120 mg/kg alone), the “Extent of partial regression” value came to 5%. Moreover, the “Number of partial regressions” value with A549 NSCLC xenograft (gemcitabine 120 mg/kg alone) is recorded as “one”.

Take `CC(=O)O[C@H]1C(=O)[C@@]2(C)[C@H]([C@H](OC(=O)c3ccccc3)[C@]3(O)C[C@H](OC(=O)[C@H](O)[C@@H](NC(=O)c4ccccc4)c4ccccc4)C(C)=C1C3(C)C)[C@]1(OC(C)=O)CO[C@@H]1C[C@@H]2O` [paclitaxel]: in the data set on NSCLC, the Response rate is listed as 21% to 24%.
